Test results as given in PMC6943527, “Are the Hydantoin-1,3,5-triazine 5-HT6R Ligands a Hope to a Find New Procognitive and Anti-Obesity Drug? Considerations Based on Primary In Vivo Assays and ADME-Tox Profile In Vitro” (Molecules, 2019).

Tests used:
[1] = parameters: method as in PMID 30282913; conditions: overeating model, vs control group; cited from earlier work
[2] = parameters: method as in PMID 30530073; conditions: QikProp, Schrödinger Suite; cited from earlier work
[3] = biological target: 5-HT7; parameters: method as in PMID 30282913; conditions: radioligand binding, average of at least two independent experiments; read-out: Ki 5-HT7 [3H]-5-CT; cited from earlier work
[4] = biological target: 5-HT1A; parameters: method as in PMID 30282913; conditions: radioligand binding, average of at least two independent experiments; read-out: Ki 5-HT1A [3H]-8-OH-DPAT; cited from earlier work
[5] = Metabolic stability and metabolic pathways in human liver microsomes
Method: The pharmacokinetic parameters of compounds were estimated by using human liver microsomes (HLMs) (Sigma-Aldrich, St. Louis, MO, USA). The t1/2 values and intrinsic clearances (CLint) were calculated with IS by using the protocols and formulas proposed by Obach [38]. […] VL was used as the reference unstable drug.

[6] = Novel object recognition (NOR) test; assay type: in vivo, male Wistar rats; conditions: rats
Method: The experiments were performed on male Wistar rats (200–220 g) obtained from an accredited animal facility at the Jagiellonian University Medical College, Poland. The animals were housed in group of four in controlled environment (ambient temperature 21 ± 2 °C; relative humidity 50%–60%; 12-h light/dark cycles (lights on at 8:00). Standard laboratory food (LSM-B) and filtered water were freely available. Animals were randomly assigned to treatment groups. All the experiments were performed by two observers unaware of the studied treatment between 9:00 and 14:00 on separate groups of animals. All animals were used only once. Procedures involving animals and their care were conducted in accordance with current European Community and Polish legislation on animal experimentation. Additionally, all efforts were made to minimize animal suffering and to use only the number of animals necessary to produce reliable scientific data. […]
The animals explored the objects by looking, licking, sniffing or touching the object but not when leaning against, standing or sitting on the object. […] The exploration time of the objects was measured by blind experimenter. Based on exploration time (E) of the two objects during T2, the discrimination index (DI) was calculated according to the formula: DI = (EB − EA)/(EA + EB). […]

[7] = Food and water intake, rats fed standard diet only; assay type: in vivo, male Wistar rats; conditions: 5 mg/kg b.w. i.p., vs control group
Method: The experiments were carried out on male Wistar rats. Their initial body weight was 210–230 g. The animals were housed in pairs in plastic cages in constant temperature facilities exposed to a light–dark cycle; water and food were available ad libitum. The control and experimental groups consisted of eight animals each. All experiments were conducted according to the guidelines of the Animal Use and Care Committee of the Jagiellonian University and were approved for realization (2013 and 2015, Poland; Permissions No 136/2013 and 258/2015).
The standard diet contained 100 g of feed—280 kcal.
Male Wistar rats (190–220 g) were housed in pair. The control group (standard diet + vehicle) received vehicle (1% Tween 80, i.p.), while the test group (standard diet + KMP-10 5 mg) was intraperitoneally injected with KMP-10 at the dose 5 mg/kg b.w./day dissolved in 1% Tween 80. The intakes of food and water were evaluated daily.

[8] = biological target: D2; parameters: method as in PMID 30282913; conditions: radioligand binding, average of at least two independent experiments; read-out: Ki D2 [3H]-Raclopride; cited from earlier work

## CN1CCN(c2nc(N)nc(CN3C(=O)NC(C)(c4ccc5ccccc5c4)C3=O)n2)CC1 (stereo not drawn) [KMP-10, 3-((4-amino-6-(4-methylpiperazin-1-yl)-1,3,5-triazin-2-yl)methyl)-5-methyl-5-(naphthalen-2-yl)imidazolidine-2,4-dione]
[1]
  Increase of body mass: significantly lower increase
[2]
  QPlogBB: −0.92
[3]
  Ki: 0.514 µM
[4]
  Ki: 14.2 µM
[5]; HLMs, 120 min incubation
  Metabolic Pathway, metabolite M1: demethylation
  Metabolic Pathway, metabolite M2: hydroxylation
  Metabolic Pathway, metabolite M3: demethylation and hydroxylation
  Metabolic Pathway, metabolite M4: hydroxylation and dehydrogenation
[5]; HLMs, reactions terminated at 5, 15, 30 and 45 min
  Intrinsic Clearance CLint: 3.74 mL/min/kg
[5]; HLMs, vs unstable reference verapamil
  t1/2, fold longer than verapamil: ~ 8 fold
[5]; human, liver microsomes
  CLint scaled: 3.74 mL/min/kg
[5]; human, liver microsomes, Half-Life t1/2, HLMs, reactions terminated at 5, 15, 30 and 45 min
  half-life: 3.98 h
[5]; human, liver microsomes, t1/2 in vitro, HLMs, as restated in comparison to SUVN-502
  half-life: > 3 h
[6]; full dose-range 0.3–3 mg/kg i.p.
  Memory deficits induced by scopolamine in NOR test: significantly and dose-dependently reversed
[6]; some activity at 1 mg/kg i.p.
  Memory impairment induced by MK-801 in NOR test, discrimination index: did not reach a statistically significant level
[7]
  Amount of calories consumed: significantly reduced
  Water intake: significantly lower
[8]
  Ki: 4.25 µM
